Tested on: PNH patients with an inadequate response to eculizumab
Assay: Phase 2 open-label study of danicopan added to eculizumab: laboratory markers of PNH (Hgb, LDH, reticulocytes, bilirubin)
Format: in vivo, human
Details: for Direct bilirubin, mean / LDH, mean / Reticulocytes, mean / Total bilirubin, mean: all patients N=11
Protocol: All doses were taken approximately 15-30 minutes after completion of a meal or snack. Dose escalations, to a maximum of 200 mg three times a day, were based on safety and hemoglobin values and permitted at 4-week intervals through week 12 at 50 mg increments. If the patient had not already reached the 200 mg three times daily maximal dose by week 12, escalation was permitted if clinically indicated. […] Patients completing treatment with clinical benefit entered a long-term extension phase.
Descriptive statistics are provided for biochemical, quality-of-life measurements, and transfusion data. Continuous variables are summarized with mean, median, minimum and maximum values. Categorical variables, e.g., transfusion-independent, are summarized with counts and percentages. Missing values were not imputed.

[1] = Patient A, Baseline, before danicopan, on eculizumab 900 mg q14d
[2] = Patient A, Week 12, danicopan 150 mg TID + eculizumab 900 mg q14d
[3] = Patient A, Week 24, danicopan 150 mg TID + eculizumab 900 mg q14d
[4] = Patient B, Baseline, before danicopan, on eculizumab 1200 mg q14d
[5] = Patient B, Week 12, danicopan 100 mg TID + eculizumab 900 mg q14d
[6] = Patient B, Week 24, danicopan 100 mg TID + eculizumab 900 mg q14d
[7] = Patient C, Baseline, before danicopan, on eculizumab 900 mg q14d
[8] = Patient C, Week 12, danicopan 150 mg TID + eculizumab 900 mg q14d
[9] = Patient C, Week 24, danicopan 150 mg TID + eculizumab 900 mg q14d
[10] = Patient D, Baseline, before danicopan, on eculizumab 900 mg q14d
[11] = Patient D, Week 12, danicopan 150 mg TID + eculizumab 900 mg q14d
[12] = Patient D, Week 24, danicopan 150 mg TID + eculizumab 900 mg q14d
[13] = Patient E, Baseline, before danicopan, on eculizumab 1200 mg q14d
[14] = Patient E, Week 12, danicopan 150 mg TID + eculizumab 1200 mg q14d
[15] = Patient E, Week 24, danicopan 150 mg TID + eculizumab 1200 mg q14d
[16] = Patient F, Baseline, before danicopan, on eculizumab 900 mg q14d
[17] = Patient F, Week 12, danicopan 150 mg TID + eculizumab 900 mg q14d
[18] = Patient F, Week 24, danicopan 150 mg TID + eculizumab 900 mg q14d
[19] = Patient G, Baseline, before danicopan, on eculizumab 1500 mg q14d
[20] = Patient G, Week 12, danicopan 100 mg TID + eculizumab 1500 mg q14d
[21] = Patient G, Week 24, danicopan 100 mg TID + eculizumab 1500 mg q14d
[22] = Patient H, Baseline, before danicopan, on eculizumab 900 mg q14d
[23] = Patient H, Week 12, danicopan 200 mg TID + eculizumab 900 mg q14d
[24] = Patient H, Week 24, danicopan 200 mg TID + eculizumab 900 mg q14d
[25] = Patient I, Baseline, before danicopan, on eculizumab 900 mg q14d
[26] = Patient I, Week 12, danicopan 100 mg TID + eculizumab 900 mg q14d
[27] = Patient I, Week 24, danicopan 200 mg TID + eculizumab 900 mg q14d
[28] = Patient J, Baseline, before danicopan, on eculizumab 1200 mg q14d
[29] = Patient J, Week 12, danicopan 100 mg TID + eculizumab 1200 mg q14d
[30] = Patient J, Week 24, danicopan 200 mg TID + eculizumab 1200 mg q14d
[31] = Patient K, Baseline, before danicopan, on eculizumab 900 mg q14d
[32] = Patient K, Week 12, danicopan 100 mg TID + eculizumab 900 mg q14d
[33] = Patient K, Week 24, danicopan 150 mg TID + eculizumab 900 mg q14d
[34] = Baseline, before danicopan, on eculizumab
[35] = Week 24, danicopan 100-200 mg TID + eculizumab

CC(=O)c1nn(CC(=O)N2C[C@H](F)C[C@H]2C(=O)Nc2cccc(Br)n2)c2ccc(-c3cnc(C)nc3)cc12 [Danicopan, danicopan]
Direct bilirubin [1]: 0.44 mg/dL
Hgb [1]: 5.00 g/dL
LDH [1]: 1.7 ×ULN
Reticulocytes [1]: 159 10^9/μL
Total bilirubin [1]: 2.14 mg/dL
Direct bilirubin [2]: 0.33 mg/dL
Hgb [2]: 7.70 g/dL
LDH [2]: 1.2 ×ULN
Reticulocytes [2]: 121 10^9/μL
Total bilirubin [2]: 1.80 mg/dL
Direct bilirubin [3]: 0.48 mg/dL
Hgb [3]: 8.50 g/dL
LDH [3]: 1.1 ×ULN
Reticulocytes [3]: 112 10^9/μL
Total bilirubin [3]: 2.40 mg/dL
Direct bilirubin [4]: 0.29 mg/dL
Hgb [4]: 9.80 g/dL
LDH [4]: 1.0 ×ULN
Reticulocytes [4]: 250 10^9/μL
Total bilirubin [4]: 1.24 mg/dL
Direct bilirubin [5]: 0.18 mg/dL
Hgb [5]: 11.8 g/dL
LDH [5]: 0.8 ×ULN
Reticulocytes [5]: 123 10^9/μL
Total bilirubin [5]: 0.89 mg/dL
Direct bilirubin [6]: 0.20 mg/dL
Hgb [6]: 13.3 g/dL
LDH [6]: 0.9 ×ULN
Reticulocytes [6]: 162 10^9/μL
Total bilirubin [6]: 0.81 mg/dL
Direct bilirubin [7]: 0.24 mg/dL
Hgb [7]: 7.60 g/dL
LDH [7]: 0.8 ×ULN
Reticulocytes [7]: 141 10^9/μL
Total bilirubin [7]: 1.03 mg/dL
Direct bilirubin [8]: 0.16 mg/dL
Hgb [8]: 9.00 g/dL
LDH [8]: 0.9 ×ULN
Reticulocytes [8]: 97.0 10^9/μL
Total bilirubin [8]: 0.580 mg/dL
Direct bilirubin [9]: 0.16 mg/dL
Hgb [9]: 9.70 g/dL
LDH [9]: 0.9 ×ULN
Reticulocytes [9]: 87.0 10^9/μL
Total bilirubin [9]: 0.580 mg/dL
Direct bilirubin [10]: 0.43 mg/dL
Hgb [10]: 10.4 g/dL
LDH [10]: 1.1 ×ULN
Reticulocytes [10]: 191 10^9/μL
Total bilirubin [10]: 2.26 mg/dL
Direct bilirubin [11]: 0.15 mg/dL
Hgb [11]: 11.7 g/dL
LDH [11]: 1.2 ×ULN
Reticulocytes [11]: 56.0 10^9/μL
Total bilirubin [11]: 0.700 mg/dL
Direct bilirubin [12]: 0.17 mg/dL
Hgb [12]: 11.5 g/dL
LDH [12]: 0.9 ×ULN
Reticulocytes [12]: 56.0 10^9/μL
Total bilirubin [12]: 0.650 mg/dL
Direct bilirubin [13]: 0.72 mg/dL
Hgb [13]: 8.60 g/dL
LDH [13]: 1.2 ×ULN
Reticulocytes [13]: 120 10^9/μL
Total bilirubin [13]: 2.35 mg/dL
Direct bilirubin [14]: 0.40 mg/dL
Hgb [14]: 7.60 g/dL
LDH [14]: 1.3 ×ULN
Reticulocytes [14]: 179 10^9/μL
Total bilirubin [14]: 2.22 mg/dL
Direct bilirubin [15]: 0.60 mg/dL
Hgb [15]: 9.40 g/dL
LDH [15]: 1.2 ×ULN
Reticulocytes [15]: 90.0 10^9/μL
Total bilirubin [15]: 1.75 mg/dL
Direct bilirubin [16]: 0.82 mg/dL
Hgb [16]: 7.20 g/dL
LDH [16]: 0.9 ×ULN
Reticulocytes [16]: 405 10^9/μL
Total bilirubin [16]: 3.93 mg/dL
Direct bilirubin [17]: 0.49 mg/dL
Hgb [17]: 9.30 g/dL
LDH [17]: 0.9 ×ULN
Reticulocytes [17]: 243 10^9/μL
Total bilirubin [17]: 1.50 mg/dL
Direct bilirubin [18]: 0.78 mg/dL
Hgb [18]: 10.6 g/dL
LDH [18]: 0.9 ×ULN
Reticulocytes [18]: 253 10^9/μL
Total bilirubin [18]: 2.95 mg/dL
Direct bilirubin [19]: 0.39 mg/dL
Hgb [19]: 7.10 g/dL
LDH [19]: 0.6 ×ULN
Reticulocytes [19]: 262 10^9/μL
Total bilirubin [19]: 1.20 mg/dL
Direct bilirubin [20]: 0.50 mg/dL
Hgb [20]: 9.40 g/dL
LDH [20]: 0.5 ×ULN
Reticulocytes [20]: 200 10^9/μL
Total bilirubin [20]: 1.90 mg/dL
Direct bilirubin [21]: 0.39 mg/dL
Hgb [21]: 9.10 g/dL
LDH [21]: 0.9 ×ULN
Reticulocytes [21]: 239 10^9/μL
Total bilirubin [21]: 1.25 mg/dL
Direct bilirubin [22]: 0.78 mg/dL
Hgb [22]: 7.70 g/dL
LDH [22]: 1.5 ×ULN
Reticulocytes [22]: 238 10^9/μL
Total bilirubin [22]: 2.18 mg/dL
Direct bilirubin [23]: 0.53 mg/dL
Hgb [23]: 7.30 g/dL
LDH [23]: 1.8 ×ULN
Reticulocytes [23]: 206 10^9/μL
Total bilirubin [23]: 2.04 mg/dL
Direct bilirubin [24]: 0.52 mg/dL
Hgb [24]: 7.50 g/dL
LDH [24]: 1.4 ×ULN
Reticulocytes [24]: 169 10^9/μL
Total bilirubin [24]: 1.57 mg/dL
Direct bilirubin [25]: 0.23 mg/dL
Hgb [25]: 7.70 g/dL
LDH [25]: 0.9 ×ULN
Reticulocytes [25]: 200 10^9/μL
Total bilirubin [25]: 0.56 mg/dL
Direct bilirubin [26]: 0.18 mg/dL
Hgb [26]: 10.8 g/dL
LDH [26]: 0.9 ×ULN
Reticulocytes [26]: 110 10^9/μL
Total bilirubin [26]: 0.34 mg/dL
Direct bilirubin [27]: 0.18 mg/dL
Hgb [27]: 11.5 g/dL
LDH [27]: 0.9 ×ULN
Reticulocytes [27]: 96 10^9/μL
Total bilirubin [27]: 0.32 mg/dL
Direct bilirubin [28]: 0.68 mg/dL
Hgb [28]: 7.80 g/dL
LDH [28]: 1.3 ×ULN
Reticulocytes [28]: 258 10^9/μL
Total bilirubin [28]: 3.24 mg/dL
Hgb [29]: 10.2 g/dL
Reticulocytes [29]: 292 10^9/μL
Direct bilirubin [30]: 0.23 mg/dL
Hgb [30]: 11.0 g/dL
LDH [30]: 1.2 ×ULN
Reticulocytes [30]: 152 10^9/μL
Total bilirubin [30]: 1.14 mg/dL
Direct bilirubin [31]: 0.64 mg/dL
Hgb [31]: 8.40 g/dL
LDH [31]: 0.9 ×ULN
Reticulocytes [31]: 188 10^9/μL
Total bilirubin [31]: 3.76 mg/dL
Direct bilirubin [32]: 0.39 mg/dL
Hgb [32]: 9.40 g/dL
LDH [32]: 1.2 ×ULN
Reticulocytes [32]: 88.0 10^9/μL
Total bilirubin [32]: 1.85 mg/dL
Direct bilirubin [33]: 0.31 mg/dL
Hgb [33]: 11.5 g/dL
LDH [33]: 1.1 ×ULN
Reticulocytes [33]: 69.0 10^9/μL
Total bilirubin [33]: 1.41 mg/dL
raise in hemoglobin (addition of danicopan to eculizumab in patients that continued to be anemic): over 2 g/dL
Direct bilirubin, mean [34]: 0.51 mg/dL
LDH, mean [34]: 1.06 ×ULN
Reticulocytes, mean [34]: 219 10^9/μL
Total bilirubin, mean [34]: 2.17 mg/dL
Direct bilirubin, mean [35]: 0.37 mg/dL
LDH, mean [35]: 1.04 ×ULN
Reticulocytes, mean [35]: 135 10^9/μL
Total bilirubin, mean [35]: 1.35 mg/dL
mean increase in Hgb (at 24 Weeks of treatment vs baseline, danicopan added to eculizumab): 2.4 g/dL
mean increase in Hgb (danicopan added to background eculizumab): 2.4 gram
raise in hemoglobin (patient without transfusion history (Patient A), baseline 5 g/dL, at 24-weeks): over 3 g/dL

Source: US20230172930A1, “USE OF COMPLEMENT FACTOR D INHIBITORS ALONE OR IN COMBINATION WITH ANTI-C5 ANTIBODIES FOR TREATMENT OF PAROXYSMAL NOCTURNAL HEMOGLOBINURIA” (Alexion Pharmaceuticals, Inc., priority 2020, published 2023)
